According to PubChem BioAssay AID330 (DTP/NCI, 2004):
Values joined by “and” are separate entries in the source; they are usually repeats but may differ in a detail not shown here. Equal values may be shown once. Inconclusive results and toxic doses are left out. How the source made its calls: active means survival T/C of 150% or more; inactive means T/C below 125% in these data.

Tested on: P388 leukemia ip, CD2F1 mice, survival T/C
Test: NCI In Vivo Anticancer Drug Screen. Data for tumor model P388 Leukemia (intraperitoneal) in CD2F1 (CDF1) mice
Settings: endpoint: median survival time, higher = longer survival
In short: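 Mice carrying the transplanted tumor received test compound or vehicle. Survival was recorded in each group, and the value is the treated-group measurement divided by that of the vehicle-treated control group.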

[1] = dose: 6.25 mg/kg/injection, schedule: Q01DX005 (ip), vehicle: saline with Tween-80
[2] = dose: 12.5 mg/kg/injection, schedule: Q01DX005 (ip), vehicle: saline with Tween-80
[3] = dose: 100.0 mg/kg/injection, schedule: Q01DX005 (ip), vehicle: saline with Tween-80
[4] = dose: 200.0 mg/kg/injection, schedule: Q01DX005 (ip), vehicle: saline with Tween-80
[5] = dose: 50.0 mg/kg/injection, schedule: Q01DX005 (ip), vehicle: Klucel (hydroxypropylcellulose) (HPC)
[6] = dose: 100.0 mg/kg/injection, schedule: Q01DX005 (ip), vehicle: Klucel (hydroxypropylcellulose) (HPC)
[7] = dose: 200.0 mg/kg/injection, schedule: Q01DX005 (ip), vehicle: Klucel (hydroxypropylcellulose) (HPC)
[8] = dose: 100.0 mg/kg/injection, schedule: Q04DX003 (ip), vehicle: saline with Tween-80
[9] = dose: 200.0 mg/kg/injection, schedule: Q04DX003 (ip), vehicle: saline with Tween-80
[10] = dose: 400.0 mg/kg/injection, schedule: Q04DX003 (ip), vehicle: saline with Tween-80

Measured: T/C

Cc1oc(N)c(C(N)=O)c1C
inactive: dose: 100.0 mg/kg/injection, schedule: Q01DX009 (ip), vehicle: saline sonified 115 % of control | dose: 200.0 mg/kg/injection, schedule: Q01DX009 (ip), vehicle: saline sonified 110 % of control | dose: 400.0 mg/kg/injection, schedule: Q01DX009 (ip), vehicle: saline sonified 115 % of control

C=CCC(CC)(C(=O)Nc1ccc2nc(C)cc(N)c2c1)C(=O)Nc1ccc2nc(C)cc(N)c2c1
inactive: [1] 94 % of control | [2] 89 % of control | [3] 87 % of control | [4] 96 % of control

CC1NC(=O)N(C2CCCCCCC2)C1=O (centres undefined)
inactive: [5] 102 % of control | [6] 114 % of control | [7] 102 % of control

CN(C)CCNC1=CC(=O)c2ccccc2C1=O
inactive: dose: 12.5 mg/kg/injection, schedule: Q01DX009 (ip), vehicle: distilled water + Tween-80 94 % of control | dose: 25.0 mg/kg/injection, schedule: Q01DX009 (ip), vehicle: distilled water + Tween-80 101 % of control | dose: 50.0 mg/kg/injection, schedule: Q01DX009 (ip), vehicle: distilled water + Tween-80 100 % of control | dose: 100.0 mg/kg/injection, schedule: Q01DX009 (ip), vehicle: distilled water + Tween-80 97 % of control

COc1ccc(/C=C/c2nc(Nc3ccc(S(N)(=O)=O)cc3)c3ccccc3n2)cc1
inactive: dose: 50.0 mg/kg/injection, schedule: Q01DX009 (ip), vehicle: acetone 102 % of control | dose: 100.0 mg/kg/injection, schedule: Q01DX009 (ip), vehicle: acetone 99 % of control | dose: 200.0 mg/kg/injection, schedule: Q01DX009 (ip), vehicle: acetone 96 % of control

CCCCCCCCCCCCCCCCCCCC[N+]1(CC)CCOCC1
inactive: [8] 98 % of control | [9] 99 % of control | [10] 96 % of control

O=C(Cc1cccc2c(=O)cc(-c3ccccc3)oc12)OCCN1CCOCC1
inactive: dose: 50.0 mg/kg/injection, schedule: Q01DX009 (ip), vehicle: saline 99 % of control | dose: 100.0 mg/kg/injection, schedule: Q01DX009 (ip), vehicle: saline 100 % of control

Cc1ccc(C(=O)c2ccccc2C(=O)O)cc1N
inactive: dose: 100.0 mg/kg/injection, schedule: Q01DX009 (ip), vehicle: saline with Tween-80 100 % of control | [8] 100 % of control | dose: 200.0 mg/kg/injection, schedule: Q01DX009 (ip), vehicle: saline with Tween-80 100 % of control | [9] 100 % of control | dose: 400.0 mg/kg/injection, schedule: Q01DX009 (ip), vehicle: saline with Tween-80 100 % of control | [10] 108 % of control

COP(=O)(OC)/C(C)=N/NS(=O)(=O)c1ccc(C)cc1
inactive: dose: 12.5 mg/kg/injection, schedule: Q01DX009 (ip), vehicle: other 91 % of control | dose: 25.0 mg/kg/injection, schedule: Q01DX009 (ip), vehicle: other 91 % of control | dose: 50.0 mg/kg/injection, schedule: Q01DX009 (ip), vehicle: other 99 % of control | dose: 100.0 mg/kg/injection, schedule: Q01DX009 (ip), vehicle: other 100 % of control | dose: 200.0 mg/kg/injection, schedule: Q01DX009 (ip), vehicle: other 98 % of control | dose: 400.0 mg/kg/injection, schedule: Q01DX009 (ip), vehicle: other 94 % of control

COC(=O)CCCCCCCCCCCCCC1C=CCC1 (centres undefined)
inactive: dose: 100.0 mg/kg/injection, schedule: Q01DX001 (ip), vehicle: saline 101 % of control | dose: 200.0 mg/kg/injection, schedule: Q01DX001 (ip), vehicle: saline 100 % of control | dose: 400.0 mg/kg/injection, schedule: Q01DX001 (ip), vehicle: saline 101 % of control

CCC(c1ccccc1)c1cc(C(C)(C)C)cc(C(C)(C)C)c1O (centres undefined)
inactive: dose: 50.0 mg/kg/injection, schedule: Q01DX005 (ip), vehicle: distilled water + alcohol 100 % of control | dose: 100.0 mg/kg/injection, schedule: Q01DX005 (ip), vehicle: distilled water + alcohol 107 % of control | dose: 200.0 mg/kg/injection, schedule: Q01DX005 (ip), vehicle: distilled water + alcohol 100 % of control

COC(=O)/C(=C/c1ccc(/C=C(/C(=O)O)c2ccc(OC)cc2)o1)c1ccc(OC)cc1
inactive: dose: 100.0 mg/kg/injection, schedule: Q04DX002 (ip), vehicle: saline with Tween-80 96 % of control | dose: 200.0 mg/kg/injection, schedule: Q04DX002 (ip), vehicle: saline with Tween-80 92 % of control | dose: 400.0 mg/kg/injection, schedule: Q04DX002 (ip), vehicle: saline with Tween-80 101 % of control

CC(C)CC1=C(C(=O)c2ccoc2)CC(C)C1 (centres undefined)
inactive: dose: 3.7 mg/kg/injection, schedule: Q01DX005 (ip), vehicle: Klucel (hydroxypropylcellulose) (HPC) 99 % of control | dose: 7.5 mg/kg/injection, schedule: Q01DX005 (ip), vehicle: Klucel (hydroxypropylcellulose) (HPC) 95 % of control | dose: 15.0 mg/kg/injection, schedule: Q01DX005 (ip), vehicle: Klucel (hydroxypropylcellulose) (HPC) 95 % of control

COC1=C(N=[N+]=[N-])C(=O)C(OC)=C(N=[N+]=[N-])C1=O
inactive: dose: 5.0 mg/kg/injection, schedule: Q01DX009 (ip), vehicle: saline with Tween-80 90 % of control | dose: 10.0 mg/kg/injection, schedule: Q01DX009 (ip), vehicle: saline with Tween-80 90 % of control | dose: 20.0 mg/kg/injection, schedule: Q01DX009 (ip), vehicle: saline with Tween-80 100 % of control

CC(=O)C1(O)CCCC(OC2CC(N)C(O)C(C)O2)C1 (centres undefined)
inactive: dose: 6.25 mg/kg/injection, schedule: Q01DX009 (ip), vehicle: water 100 % of control | dose: 12.5 mg/kg/injection, schedule: Q01DX009 (ip), vehicle: water 95 % of control | dose: 25.0 mg/kg/injection, schedule: Q01DX009 (ip), vehicle: water 104 % of control | dose: 50.0 mg/kg/injection, schedule: Q01DX009 (ip), vehicle: water 113 % of control | dose: 100.0 mg/kg/injection, schedule: Q01DX009 (ip), vehicle: water 113 % of control

O=C(Cc1nc2ccccc2nc1CC(=O)c1ccncc1)c1ccncc1
inactive: [1] 102 % of control | [2] 90 % of control | dose: 60.0 mg/kg/injection, schedule: Q01DX005 (ip), vehicle: saline with Tween-80 93 % of control | dose: 240.0 mg/kg/injection, schedule: Q01DX005 (ip), vehicle: saline with Tween-80 98 % of control

CCCCN1C(=O)N/C(=C/C(=O)OCC)C1=O
inactive: dose: 25.0 mg/kg/injection, schedule: Q01DX009 (ip), vehicle: Klucel (hydroxypropylcellulose) (HPC) 93 % of control | dose: 50.0 mg/kg/injection, schedule: Q01DX009 (ip), vehicle: Klucel (hydroxypropylcellulose) (HPC) 103 % of control | dose: 100.0 mg/kg/injection, schedule: Q01DX009 (ip), vehicle: Klucel (hydroxypropylcellulose) (HPC) 102 % of control

CC12Cc3cn[nH]c3CC1CCC1C2CCC2(C)C1CCC2(C)O (centres undefined)
inactive: dose: 100.0 mg/kg/injection, schedule: Q04DX002 (ip), vehicle: saline 98 % of control | dose: 200.0 mg/kg/injection, schedule: Q04DX002 (ip), vehicle: saline 100 % of control | dose: 400.0 mg/kg/injection, schedule: Q04DX002 (ip), vehicle: saline 97 % of control

CCc1nnc2ccncn12
inactive: [8] 97 % of control | [9] 90 % of control | [10] 102 % of control

CCOC(=O)C(=CNc1cccc(N(C)C)c1)C(=O)OCC
inactive: dose: 50.0 mg/kg/injection, schedule: Q01DX005 (ip), vehicle: saline with Tween-80 100 % of control | [3] 92 % of control | [4] 100 % of control

CCc1c2c(cc3c1[nH]c1ccccc13)C(=O)NC2=O
inactive: dose: 25.0 mg/kg/injection, schedule: Q01DX005 (ip), vehicle: Klucel (hydroxypropylcellulose) (HPC) 99 % of control | [5] 90 % of control and 92 % of control | [6] 97 % of control | [7] 94 % of control
